This is an account of results in BindingDB's records for doi:10.1016/s0006-291x(02)03054-1 (Pharmacia, 2003).

This assay addresses FMRFamide-like neuropeptides 14 (Ascaris).

As usually defined, the Ki is a dissociation constant, usually derived from enzyme kinetics or from competition with a known ligand. The compound `Nc1nc2c(ncn2C2OC(COP(=O)(O)OP(=O)(O)OP(=O)(O)O)C(O)C2O)c(=O)[nH]1` (stereo unspecified) [CAS_6830] showed an inhibition constant (Ki) of 0.0105 µM.
